Key:
Assay in all cases: KINOMEscan competition binding
Details in all cases: compound 10.0 µM
PIM1 (human) = PIM1 (human) (UniProt P11309)
[1] = tested on: FLT3 (human), P36888 [D835H]
MAP3K6 (human) = MAP3K6 (human) (UniProt O95382)
CDK13 (human) = CDK13 (human) (UniProt Q14004)
FES (human) = FES (human) (UniProt P07332)
PHKG2 (human) = PHKG2 (human) (UniProt P15735)
EPHB1 (human) = EPHB1 (human) (UniProt P54762)
PKN3 (M.tuberculosis) = PKN3 (M.tuberculosis) (UniProt Q6P5Z2)
MAP3K5 (human) = MAP3K5 (human) (UniProt Q99683)
PRKG1 (human) = PRKG1 (human) (UniProt Q13976)
CSNK1G2 (human) = CSNK1G2 (human) (UniProt P78368)
MAP4K1 (human) = MAP4K1 (human) (UniProt Q92918)
DAPK3 (human) = DAPK3 (human) (UniProt O43293)
MAP3K4 (human) = MAP3K4 (human) (UniProt Q9Y6R4)
STK32B (human) = STK32B (human) (UniProt Q9NY57)
RPS6KA6 KD1 (human) = RPS6KA6 KD1 (human) (UniProt Q9UK32)
BRSK2 (human) = BRSK2 (human) (UniProt Q8IWQ3)
STK17B (human) = STK17B (human) (UniProt O94768)
MINK1 (human) = MINK1 (human) (UniProt Q8N4C8)
NEK6 (human) = NEK6 (human) (UniProt Q9HC98)
NEK6 (human), sequence (Q9HC98 whole entry, looked up): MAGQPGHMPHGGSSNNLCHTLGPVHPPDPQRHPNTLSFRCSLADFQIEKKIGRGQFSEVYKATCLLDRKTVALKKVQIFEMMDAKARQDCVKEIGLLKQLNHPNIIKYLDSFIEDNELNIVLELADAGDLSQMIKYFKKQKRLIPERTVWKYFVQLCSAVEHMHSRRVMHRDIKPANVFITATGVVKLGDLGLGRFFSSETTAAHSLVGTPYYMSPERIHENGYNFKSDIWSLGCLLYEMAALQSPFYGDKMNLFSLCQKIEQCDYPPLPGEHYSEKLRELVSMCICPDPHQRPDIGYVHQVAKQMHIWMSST

BLK (human) = BLK (human) (UniProt P51451)
STK38L (human) = STK38L (human) (UniProt Q9Y2H1)
AAK1 (human) = AAK1 (human) (UniProt Q2M2I8)
MST4 (human) = MST4 (human) (UniProt Q9P289)
FYN (human) = FYN (human) (UniProt P06241)
FYN (human), sequence (P06241 whole entry, looked up): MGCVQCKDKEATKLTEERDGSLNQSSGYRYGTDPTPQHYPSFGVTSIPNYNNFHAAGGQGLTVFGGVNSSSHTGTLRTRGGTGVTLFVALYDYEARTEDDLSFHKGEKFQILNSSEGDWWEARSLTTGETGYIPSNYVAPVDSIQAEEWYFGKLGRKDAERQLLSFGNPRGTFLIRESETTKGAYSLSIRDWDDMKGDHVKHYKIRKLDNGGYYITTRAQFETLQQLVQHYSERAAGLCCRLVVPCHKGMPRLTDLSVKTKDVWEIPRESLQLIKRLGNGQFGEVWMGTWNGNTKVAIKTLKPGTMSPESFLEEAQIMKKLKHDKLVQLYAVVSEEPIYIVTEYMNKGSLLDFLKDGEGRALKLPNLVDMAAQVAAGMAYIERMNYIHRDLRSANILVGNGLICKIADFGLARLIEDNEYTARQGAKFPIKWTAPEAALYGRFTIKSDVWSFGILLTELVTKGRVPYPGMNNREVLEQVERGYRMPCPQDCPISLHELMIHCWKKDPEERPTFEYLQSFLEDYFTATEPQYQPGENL

MET (human) = MET (human) (UniProt P08581)
CDK11B (human) = CDK11B (human) (UniProt P21127)
CDK11B (human), sequence (P21127 whole entry, looked up): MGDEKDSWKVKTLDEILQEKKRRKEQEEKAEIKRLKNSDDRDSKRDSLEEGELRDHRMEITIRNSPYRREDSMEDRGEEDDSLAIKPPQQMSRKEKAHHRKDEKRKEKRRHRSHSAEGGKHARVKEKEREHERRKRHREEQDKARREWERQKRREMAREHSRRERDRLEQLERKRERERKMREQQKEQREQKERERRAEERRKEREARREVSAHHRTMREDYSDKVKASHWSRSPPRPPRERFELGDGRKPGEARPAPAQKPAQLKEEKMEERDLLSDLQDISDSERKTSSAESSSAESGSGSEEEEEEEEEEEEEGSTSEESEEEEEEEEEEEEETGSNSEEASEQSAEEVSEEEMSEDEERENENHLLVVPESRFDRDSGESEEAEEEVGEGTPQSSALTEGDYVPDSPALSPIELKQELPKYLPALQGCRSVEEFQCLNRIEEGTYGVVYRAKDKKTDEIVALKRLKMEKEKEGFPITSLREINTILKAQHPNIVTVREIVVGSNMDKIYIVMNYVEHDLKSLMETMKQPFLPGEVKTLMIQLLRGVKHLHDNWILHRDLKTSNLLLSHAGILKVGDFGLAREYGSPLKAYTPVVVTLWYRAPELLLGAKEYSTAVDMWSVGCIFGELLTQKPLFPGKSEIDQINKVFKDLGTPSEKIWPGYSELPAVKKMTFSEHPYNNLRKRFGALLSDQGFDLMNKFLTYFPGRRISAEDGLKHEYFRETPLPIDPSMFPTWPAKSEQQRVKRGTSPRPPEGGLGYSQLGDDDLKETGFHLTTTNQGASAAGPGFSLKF

FGR (human) = FGR (human) (UniProt P09769)
CRK2 (P.falciparum) = CRK2 (P.falciparum) (UniProt P61075)
CDK16 (human) = CDK16 (human) (UniProt Q00536)
PTK2B (human) = PTK2B (human) (UniProt Q14289)
MAPK3 (human) = MAPK3 (human) (UniProt P27361)
GSK3A (human) = GSK3A (human) (UniProt P49840)
MAST1 (human) = MAST1 (human) (UniProt Q9Y2H9)
ULK3 (human) = ULK3 (human) (UniProt Q6PHR2)
FRK (human) = FRK (human) (UniProt P42685)
[2] = tested on: KIT (human), P10721 [L576P]
ERBB2 (human) = ERBB2 (human) (UniProt P04626)
ERBB2 (human), sequence (P04626 whole entry, looked up): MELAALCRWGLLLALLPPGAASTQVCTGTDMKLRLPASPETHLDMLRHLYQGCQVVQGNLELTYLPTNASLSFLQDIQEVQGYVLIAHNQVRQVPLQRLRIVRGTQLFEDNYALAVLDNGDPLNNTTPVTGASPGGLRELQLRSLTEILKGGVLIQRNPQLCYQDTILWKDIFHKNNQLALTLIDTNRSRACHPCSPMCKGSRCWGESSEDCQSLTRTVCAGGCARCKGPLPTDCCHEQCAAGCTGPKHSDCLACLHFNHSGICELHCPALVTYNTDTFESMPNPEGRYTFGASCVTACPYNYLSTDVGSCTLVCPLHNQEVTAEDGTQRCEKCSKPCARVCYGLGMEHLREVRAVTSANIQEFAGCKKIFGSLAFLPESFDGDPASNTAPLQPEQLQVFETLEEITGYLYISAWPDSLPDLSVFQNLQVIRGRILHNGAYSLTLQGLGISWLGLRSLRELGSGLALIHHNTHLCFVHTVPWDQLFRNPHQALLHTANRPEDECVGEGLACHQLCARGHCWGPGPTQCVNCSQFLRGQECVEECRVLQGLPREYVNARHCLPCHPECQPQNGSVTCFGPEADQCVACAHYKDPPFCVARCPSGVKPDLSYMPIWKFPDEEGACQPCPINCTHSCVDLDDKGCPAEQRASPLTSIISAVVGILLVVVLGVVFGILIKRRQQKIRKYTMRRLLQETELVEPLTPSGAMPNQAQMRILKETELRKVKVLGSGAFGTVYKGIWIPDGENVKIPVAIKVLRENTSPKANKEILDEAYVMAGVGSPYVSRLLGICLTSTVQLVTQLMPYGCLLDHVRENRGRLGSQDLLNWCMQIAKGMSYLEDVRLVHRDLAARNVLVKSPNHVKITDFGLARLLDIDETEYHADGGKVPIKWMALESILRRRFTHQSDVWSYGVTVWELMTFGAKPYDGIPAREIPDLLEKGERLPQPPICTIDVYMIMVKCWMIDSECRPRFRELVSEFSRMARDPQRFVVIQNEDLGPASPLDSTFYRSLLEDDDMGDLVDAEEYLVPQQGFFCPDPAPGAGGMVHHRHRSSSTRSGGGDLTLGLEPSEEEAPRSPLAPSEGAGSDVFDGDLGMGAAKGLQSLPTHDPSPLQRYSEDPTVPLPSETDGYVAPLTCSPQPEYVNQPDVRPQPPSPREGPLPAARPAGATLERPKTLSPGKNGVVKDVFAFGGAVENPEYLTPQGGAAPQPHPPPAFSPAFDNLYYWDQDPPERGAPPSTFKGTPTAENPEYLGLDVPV

NUAK1 (human) = NUAK1 (human) (UniProt O60285)
NUAK1 (human), sequence (O60285 whole entry, looked up): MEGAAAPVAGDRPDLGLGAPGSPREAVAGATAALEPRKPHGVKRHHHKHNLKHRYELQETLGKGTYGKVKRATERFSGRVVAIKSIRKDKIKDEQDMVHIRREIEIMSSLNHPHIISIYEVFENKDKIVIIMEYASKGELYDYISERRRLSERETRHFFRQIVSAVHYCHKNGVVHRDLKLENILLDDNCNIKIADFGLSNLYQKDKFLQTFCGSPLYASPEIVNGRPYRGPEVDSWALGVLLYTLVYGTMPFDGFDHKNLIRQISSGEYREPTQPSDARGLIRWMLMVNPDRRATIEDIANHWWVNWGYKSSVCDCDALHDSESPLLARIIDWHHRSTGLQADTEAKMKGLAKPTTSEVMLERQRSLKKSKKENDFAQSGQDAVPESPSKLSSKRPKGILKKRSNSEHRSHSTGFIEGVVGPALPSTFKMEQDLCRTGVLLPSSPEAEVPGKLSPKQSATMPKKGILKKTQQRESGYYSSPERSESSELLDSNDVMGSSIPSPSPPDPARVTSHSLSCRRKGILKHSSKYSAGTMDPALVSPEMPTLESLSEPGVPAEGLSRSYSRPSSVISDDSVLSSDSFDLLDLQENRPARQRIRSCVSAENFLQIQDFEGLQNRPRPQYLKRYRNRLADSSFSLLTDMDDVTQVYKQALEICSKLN

LYN (human) = LYN (human) (UniProt P07948)

CDK13 (human), sequence (Q14004 whole entry, looked up): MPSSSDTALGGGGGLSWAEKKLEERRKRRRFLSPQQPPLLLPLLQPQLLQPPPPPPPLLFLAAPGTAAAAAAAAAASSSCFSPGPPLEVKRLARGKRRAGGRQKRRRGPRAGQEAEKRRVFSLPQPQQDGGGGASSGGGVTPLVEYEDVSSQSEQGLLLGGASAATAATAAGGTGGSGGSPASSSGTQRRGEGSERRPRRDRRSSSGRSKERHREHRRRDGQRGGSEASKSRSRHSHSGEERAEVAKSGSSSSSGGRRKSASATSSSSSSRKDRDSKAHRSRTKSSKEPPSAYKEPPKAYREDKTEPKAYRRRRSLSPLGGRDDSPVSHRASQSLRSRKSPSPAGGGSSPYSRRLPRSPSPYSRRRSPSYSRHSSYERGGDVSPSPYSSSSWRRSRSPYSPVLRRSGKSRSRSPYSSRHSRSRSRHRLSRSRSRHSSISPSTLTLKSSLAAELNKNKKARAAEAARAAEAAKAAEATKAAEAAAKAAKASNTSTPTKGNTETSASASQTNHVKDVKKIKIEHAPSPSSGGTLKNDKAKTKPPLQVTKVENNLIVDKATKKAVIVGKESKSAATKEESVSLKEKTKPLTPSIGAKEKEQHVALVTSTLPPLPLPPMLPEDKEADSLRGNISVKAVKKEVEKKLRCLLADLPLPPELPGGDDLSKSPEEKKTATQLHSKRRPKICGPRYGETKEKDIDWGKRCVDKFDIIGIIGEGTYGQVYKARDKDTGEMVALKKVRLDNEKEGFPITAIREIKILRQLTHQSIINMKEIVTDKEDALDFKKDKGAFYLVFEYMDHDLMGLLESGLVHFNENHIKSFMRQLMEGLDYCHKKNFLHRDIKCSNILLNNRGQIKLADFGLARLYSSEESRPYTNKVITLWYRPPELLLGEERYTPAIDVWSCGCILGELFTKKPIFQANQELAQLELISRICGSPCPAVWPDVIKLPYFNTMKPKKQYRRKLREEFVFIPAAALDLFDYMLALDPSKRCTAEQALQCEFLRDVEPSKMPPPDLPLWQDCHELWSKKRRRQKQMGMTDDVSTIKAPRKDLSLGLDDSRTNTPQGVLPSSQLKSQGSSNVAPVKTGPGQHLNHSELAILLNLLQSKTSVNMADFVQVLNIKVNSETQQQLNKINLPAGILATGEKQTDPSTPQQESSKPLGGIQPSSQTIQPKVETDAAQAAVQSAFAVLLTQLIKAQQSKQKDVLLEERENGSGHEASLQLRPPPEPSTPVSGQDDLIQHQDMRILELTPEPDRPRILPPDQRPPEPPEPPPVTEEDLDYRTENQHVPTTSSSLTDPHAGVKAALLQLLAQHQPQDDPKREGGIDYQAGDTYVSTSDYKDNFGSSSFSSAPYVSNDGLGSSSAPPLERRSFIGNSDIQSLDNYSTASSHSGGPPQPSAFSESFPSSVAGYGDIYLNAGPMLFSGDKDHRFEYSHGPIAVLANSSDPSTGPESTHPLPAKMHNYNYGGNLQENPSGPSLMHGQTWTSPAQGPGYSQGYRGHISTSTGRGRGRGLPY

| Structure (SMILES) | kinase still bound, per cent of control (PIM1 (human)) | kinase still bound, per cent of control [1] | kinase still bound, per cent of control (MAP3K6 (human)) | kinase still bound, per cent of control (CDK13 (human)) | kinase still bound, per cent of control (FES (human)) | kinase still bound, per cent of control (PHKG2 (human)) | kinase still bound, per cent of control (EPHB1 (human)) | kinase still bound, per cent of control (PKN3 (M.tuberculosis)) | kinase still bound, per cent of control (MAP3K5 (human)) | kinase still bound, per cent of control (PRKG1 (human)) | kinase still bound, per cent of control (CSNK1G2 (human)) | kinase still bound, per cent of control (MAP4K1 (human)) | kinase still bound, per cent of control (DAPK3 (human)) | kinase still bound, per cent of control (MAP3K4 (human)) | kinase still bound, per cent of control (STK32B (human)) | kinase still bound, per cent of control (RPS6KA6 KD1 (human)) | kinase still bound, per cent of control (BRSK2 (human)) | kinase still bound, per cent of control (STK17B (human)) | kinase still bound, per cent of control (MINK1 (human)) | kinase still bound, per cent of control (NEK6 (human)) | other results |
| --- | --- | --- | --- | --- | --- | --- | --- | --- | --- | --- | --- | --- | --- | --- | --- | --- | --- | --- | --- | --- | --- |
| O=C(Nc1cccc(Nc2ncc(Br)c(NCCc3cnc[nH]3)n2)c1)N1CCCC1 | 87% | 0.2% | 49% | 0.35% | 33% | 8.9% | 85% | 6.6% | 24% | 72% | 76% | 13% | 4% | 47% | 100% | 0.6% | 5.8% | 2.4% | 4.2% | 0.5% | kinase still bound, per cent of control (BLK (human)): 0.6%; kinase still bound, per cent of control (STK38L (human)): 69%; kinase still bound, per cent of control (AAK1 (human)): 3.1%; kinase still bound, per cent of control (MST4 (human)): 0.4%; kinase still bound, per cent of control (FYN (human)): 8.2%; kinase still bound, per cent of control (MET (human)): 4.4%; kinase still bound, per cent of control (CDK11B (human)): 66%; kinase still bound, per cent of control (FGR (human)): 13%; kinase still bound, per cent of control (CRK2 (P.falciparum)): 100%; kinase still bound, per cent of control (CDK16 (human)): 40%; kinase still bound, per cent of control (PTK2B (human)): 8.2%; kinase still bound, per cent of control (MAPK3 (human)): 76%; kinase still bound, per cent of control (GSK3A (human)): 60%; kinase still bound, per cent of control (MAST1 (human)): 58%; kinase still bound, per cent of control (ULK3 (human)): 0.1%; kinase still bound, per cent of control (FRK (human)): 46%; kinase still bound, per cent of control [2]: 0%; kinase still bound, per cent of control (ERBB2 (human)): 88%; kinase still bound, per cent of control (NUAK1 (human)): 0%; kinase still bound, per cent of control (LYN (human)): 24% |
| COc1ccc(N(C(=O)Oc2c(C)cccc2C)c2ccnc(Nc3ccc(N4CCN(C)CC4)cc3)n2)c(OC)c1 | 100% | 3% | 93% | 100% | 0.35% | 100% | 0% | 90% | 100% | 100% | 33% | 0.25% | 88% | 23% | 1.1% | 40% | 81% | 100% | 14% | 96% | kinase still bound, per cent of control (BLK (human)): 0.05%; kinase still bound, per cent of control (STK38L (human)): 100%; kinase still bound, per cent of control (AAK1 (human)): 13%; kinase still bound, per cent of control (MST4 (human)): 33%; kinase still bound, per cent of control (FYN (human)): 0%; kinase still bound, per cent of control (MET (human)): 3.9%; kinase still bound, per cent of control (CDK11B (human)): 58%; kinase still bound, per cent of control (FGR (human)): 0.15%; kinase still bound, per cent of control (CRK2 (P.falciparum)): 100%; kinase still bound, per cent of control (CDK16 (human)): 98%; kinase still bound, per cent of control (PTK2B (human)): 9%; kinase still bound, per cent of control (MAPK3 (human)): 100%; kinase still bound, per cent of control (GSK3A (human)): 100%; kinase still bound, per cent of control (MAST1 (human)): 100%; kinase still bound, per cent of control (ULK3 (human)): 59%; kinase still bound, per cent of control (FRK (human)): 0%; kinase still bound, per cent of control [2]: 1%; kinase still bound, per cent of control (ERBB2 (human)): 15%; kinase still bound, per cent of control (NUAK1 (human)): 30%; kinase still bound, per cent of control (LYN (human)): 0% |

— the kinase profiling compilation of Christmann-Franck et al. (2016)
